According to patent EP2402358A2, “2',3'-Didehydro-3'-deoxy-4'-ethynylothymidine derivatives for treatment infections caused by human immunodeficiency virus (HIV) multidrug resistant strains, method of their synthesis and pharmaceutically acceptable forms of drugs” (priority 2010, dated 2012):
pEC50: −log10 of the molar value.

Columns and labels:
[1] = tested on: Wild type HIV-1 (NL4-3 cytotropic strain, CXCR4 - tropic); experiment: Determination of antiviral activity (beta-galactosidase reporter indicator cell line, deClPhR cell system), wild type virus; type: cell-based; conditions: Human immunodeficiency virus 1, NL43
Source text: (§1) Determination of antiviral activity

[2] = tested on: HIV-1 virus strain Resistant 7005695; conditions: Resistance factor Rf=EC50 mutant / EC50 wt virus
Source text: as §1
(§2) Fully infectious virus HIV-1 was produced from cloned proviral DNA reference coding either for wild-type HIV-1 or from drug-resistant virus following transfection of proviral DNA into recipient mammalian cells. Subsequent to viral protein expression and particle formation, culture supernatant was harvested and used to infect an indicator cell line. This latter cell line expresses all necessary receptors and co-receptors for HIV infection as well as the bacterial gene LacZ coding for β-galactosidase under the control of the HIV-1 long terminal repeat. In this system, amount of β-galactosidase is directly proportional to the extent of viral replication. Activity of β-galactosidase is assayed in presence of a colorless substrate which upon enzymatic conversion yields a yellow product absorbing at 405 nm. Next, variation in colorimetric readout in presence of test compounds was translated in percent viral inhibition following normalization according to absorbance values of positive (presence of anti-HIV drug) and negative (untreated) control wells included in each 96 well-plate. […] Percent inhibition data in function of drug concentration were processed by a statistical curve fitting software yielding a modeled curve from which EC50 was extrapolated.
(§3) Resistance factor Rf=EC50 mutant / EC50 wt virus

[3] = tested on: HIV-1 virus strain Resistant QCR8; conditions: Resistance factor Rf=EC50 mutant / EC50 wt virus
Source text: as §1, §2, §3

[4] = Determination of cytotoxicity: Alamar Blue Cell Viability Assay; type: cell-based; conditions: deciphr cells
Source text: (§4) Determination of cytotoxicity: Alamar Blue™ Cell Viability Assay
(§5) The Alamar Blue™ Cell Viability Assay (Invitrogen) is a fluorimetric metod for determining the number of viable cells. The Alamar Blue Reagent contains the cell permeable non-fluorescent blue dye resazurin, which is converted to the pink and fluorescent dye resorufin in response to the action of reductases located in the cytosol, mitochondria and endoplasmic reticulum. Therefore, only living cells will convert resazurin into resorufin. Assays are performed by adding 20 µL of the Alamar Blue Reagent directly to culture wells followed by a 6-hour incubation at 37°C. The fluorescent signal is monitored using 545 nm excitation wavelength and 590 nm emission wavelength. The quantity of resofurin product as measured by fluorescence is directly proportional to the number of living cells in culture, what allows to calculate CC50 value.

[5] = tested on: deClPhR™ cells; experiment: as above; type: cell-based; conditions: Cytotoxicity; PNL4-3; deClPhR™ cells
Source text: as §4, §5

| SMILES | pEC50 [1] | Rf* [2] | Rf* [3] | CC50 ([4]; Cytotoxicity, PNL4-3, deClPhR™ cells) [nM] | CC50 ([4]; cytotoxicity in deClPhR™ cells) [nM] | CC50 [5] [nM] |
| --- | --- | --- | --- | --- | --- | --- |
| C#C[C@@]1(CO)C=C[C@H](n2cc(C)c(=O)[nH]c2=O)O1 [4'-E-d4T (WA32), 2',3'-didehydro-3'-deoxy-4'-ethynylothymidine] | 7.05 | 17.3 | 1.4 | > 200000 |  |  |
| C#C[C@@]1(COC(=O)CCCCCCCCCCCCC)C=C[C@H](n2cc(C)c(=O)[nH]c2=O)O1 [WA37, 1-(2,3-dideoxy-2,3-didehydro-4-ethynyl-5-O-tetradodecanoyl-bb-D-ribofuranosyl)-thymine] | 7.27 | 23.7 | 1.3 |  | > 200000 | > 200000 |
| C#C[C@@]1(COC(=O)CCCCCCCCCCCBr)C=C[C@H](n2cc(C)c(=O)[nH]c2=O)O1 [WA38, 1-(5-O-(12-bromododecanoyl)-2,3-dideoxy-2,3-didehydro-4-ethynyl-bb-D-ribofuranosyl)-thymine] | 6.89 | 10.4 | 1 |  | > 200000 | > 200000 |
| C#C[C@@]1(COC(=O)CCCCCCCCCCCN=[N+]=[N-])C=C[C@H](n2cc(C)c(=O)[nH]c2=O)O1 [WA39, 1-(5-O-(12-azidododecanoyl)-2,3-dideoxy-2,3-didehydro-4-ethynyl-bb-D-ribofuranosyl)-thymine] | 7.14 | 12.2 | 0.8 |  | > 200000 | > 200000 |
| C#C[C@@]1(COC(=O)CCCCCCCCCCCOC)C=C[C@H](n2cc(C)c(=O)[nH]c2=O)O1 [WA40, 1-(2,3-dideoxy-2,3-didehydro-4-ethynyl-5-O-(12-methoxydodecanoyl)-bb-D -ribofuranosy)-thymine] | 7.32 | 17.4 | 2.3 |  | > 200000 | > 200000 |
| C#C[C@@]1(COC(=O)CCCCCCCCCCSCC)C=C[C@H](n2cc(C)c(=O)[nH]c2=O)O1 [WA42] | 7.37 | 16.1 | 2.3 |  | > 200000 | > 200000 |
